Measurements taken from patent publication US20250101062A1, “ANTIMICROBIAL PEPTIDES” (Board of Regents of the University of Nebraska, priority 2023, published 2025).
Where two headings read alike, the source gives them in different places. Where no end group is shown, it is not given here.

What was measured:
[1] = Effect of MHB dilution on antibacterial activity of a panel of antibiotics; type: cell-based; conditions: MHB from 100 to 12.5%
MRSA USA300 = assay: Membrane permeabilization (propidium iodide); type: cell-based, Staphylococcus aureus; conditions: Example 1, 1×MIC
Protocol: The peptide ladder was prepared as described for the antibacterial assay with 10 μL of solution in a black COSTAR® 96-well plate. PI (MP Biomedicals, Solon, OH) was prepared in the dark and dissolved in dimethylsulfoxide (Thermo Fisher Scientific, NY) to 20 mM. This PI stock solution was further diluted to 1 mM with water, and 2 μL of 1 mM PI was added to each well. Exponential-phase MRSA USA300 was diluted to OD600 0.11 with TSB, and 88 μL was added to each well. The plate was incubated at 37° C. with continuous shaking in a FLUOstar® Omega (BMG LABTECH, NC) microplate reader. The sample was read every 5 minutes for 24 cycles with excitation and emission wavelengths of 584 and 620 nm, respectively.
Bacterial membrane permeation was conducted (Yeaman, et al. (1998) J. Clin. Invest., 101(1):178-87). In brief, the peptide ladder was prepared as described for the antibacterial assay with 10 μL in a black COSTAR 96-well plate. Propidium iodide (PI) (MP Biomedicals, Solon, OH) was prepared in the dark and dissolved in DMSO (Thermo Fisher Scientific, NY) to 20 mM. This PI stock solution was further diluted to 1 mM with water and 2 μL of 1 mM PI was added to each well. Exponential phase MRSA USA300 or P. aeruginosa E411-17 was diluted to OD600 0.11 with tryptic soy broth (TSB) and 88 μL was added to each well. The plate was incubated at 37° C. with continuous shaking in a FLUOstar® Omega (BMG LABTECH, NC) microplate reader. The sample was read every 5 minutes for 24 cycles with excitation and emission wavelengths at 584 nm and 620 nm, respectively.

E. coli E423-17 [2] = assay: Membrane permeabilization (propidium iodide); type: cell-based, Escherichia coli; conditions: Example 1, 1×MIC
S. aureus USA300 LAC = assay: microbe, parasite or virus in culture; type: cell-based, Staphylococcus aureus
Method in brief: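 Broth microdilution with twofold peptide dilutions, using exponential-phase bacteria at about 10^5 CFU/mL in MHB, incubated overnight at 37 °C and read at OD600. MIC, reported as a range, is the peptide concentration with no growth. Some tests used diluted MHB/TSB/LB, adjusted pH, or added NaCl or human serum.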

P. aeruginosa E411-17 = assay: microbe, parasite or virus in culture; type: cell-based, Pseudomonas aeruginosa; conditions: for MIC: read-out: Antimicrobial activity (MIC)
Protocol: (§1) The following resistant bacterial clinical strains were used in this study: S. aureus USA300 LAC, S. epidermidis 1457, E. coli E423-17, P. aeruginosa E411-17, K. pneumoniae E406-17, and A. baumannii B28-16. While the S. aureus USA300 strain is methicillin-resistant, most of the Gram-negative bacteria contain extended-spectrum beta-lactamase and are resistant to beta-lactam antibiotics. Peptide activity against bacteria was tested using an established lab protocol (Mishra, et al. (2017) Acta Biomater., 49:316-328). In brief, a peptide concentration gradient with twofold dilution was made in the 96-well polystyrene microplate at 10 μL per well. Bacteria were grown to the exponential phase (i.e., optical density at 600 nm≈0.5), diluted to ˜10^5 CFU/mL in different percentages of MHB, TSB, or LB, and partitioned into the 96-well microplate at 90 μL per well. […] They were diluted with autoclaved distilled water to obtain different percentages. The microplates were incubated at 37° C. overnight and read on a ChroMate™ 4300 microplate reader at 600 nm (GMI, Ramsey, MN). The peptide concentration in the wells without bacterial growth is the MIC. As is the convention, MIC values were represented as ranges.
(§2) For pH effects on peptide activity, the pH of the medium was adjusted to a targeted pH for the autoclave and then remeasured at room temperature. For salt and serum effects on peptide activity, stock NaCl solution or human serum was added to the media.
(§3) Peptide activity against bacteria were tested using the CLSI standard procedure with minor modifications (Clinical and Laboratory Standards Institute (2018) Performance standards for antimicrobial susceptibility testing, 9th ed.; Mishra, et al. (2019) Proc. Natl. Acad. Sci., 116(27):13517-13522). In brief, a peptide concentration gradient with twofold dilution was made in the 96-well polystyrene microplate at 10 μL per well. Bacteria were grown to the exponential phase (i.e., optical density at 600 nm≈0.5), diluted to ˜10^5 CFU/mL in MHB, and partitioned into the 96-well microplate at 90 μL per well. The microplates were incubated at 37° C. overnight and read on a ChroMate® 4300 Microplate Reader at 600 nm (GMI, Ramsey, MN). The peptide concentration in the wells without bacterial growth is the minimal inhibitory concentration (MIC). As the convention, MIC values were represented as ranges.
(§4) For pH effects on peptide activity, the pH of the medium was adjusted to a targeted pH for autoclave and then remeasured at room temperature. For salt and serum effects on peptide activity, stock NaCl solution or human serum were added to the media.

K. pneumoniae E406-17 = type: cell-based, Klebsiella pneumoniae
Protocol: as §1, §3

E. coli E423-17 [3] = type: cell-based, Escherichia coli; conditions: E423-17
Protocol: as §1, §2, §3, §4

A. baumannii B28-16 = type: cell-based, Acinetobacter baumannii; conditions: B28-16
Protocol: as §1, §3

[4] = system: human keratinocyte HaCaT cells; assay: Cell viability assay (MTS); type: cell-based
Protocol: Human keratinocyte HaCaT cells were grown in DMEM/high glucose (Hyclone, UT) containing 10% fetal bovine serum (Mediatech, Corning, Manassas, VA). […] The mixture was incubated at 37° C. in 5% CO2 for 24 hours.
(§5) HepG2 cells were cultured in ATCC-formulated Eagle's Minimum Essential Medium with 10% FBS. A549 cells were grown in ATCC-formulated F-12K Medium containing 10% FBS.

human red blood cells = assay: Hemolytic assay; type: cell-based; conditions: red cells of human
Protocol: The hemolytic effects of peptides were evaluated using a method with minor modifications (Lakshmaiah Narayana, et al. (2021) ACS Infect. Dis., 7:1795-1808). Human red blood cells (hRBCs, UNMC Blood Bank) were washed (3×) with blood bank saline (isotonic solution 0.90% w/v, Fisher). Cells were diluted to 2% using the saline solution, and aliquots of 90 μL were added to a 96-well polystyrene microplate containing 10 μL of serially diluted peptide solutions. After incubation at 37° C. for 1 hour, plates were centrifuged at 500 g for 5 minutes. Aliquots of the supernatant were transferred to a 96-well microplate. The amount of hemoglobin released was measured at 545 nm by using a ChroMate™ microplate reader. […] HC50 is defined as the concentration of the peptide that caused 50% lysis.
The hemolytic effects of peptides were evaluated (Narayana, et al. (2020) Proc. Natl. Acad. Sci., 117(32):19446-9454). In brief, human red blood cells (UNMC Blood Bank) were washed (3×) and diluted to 2% using the saline solution. Aliquots of 90 μL were mixed with 10 μL of serially diluted peptide solutions. After incubation at 37° C. for 1 hour, plates were centrifuged at 500 g for 5 minutes and aliquots of the supernatant were transferred to a new 96-well microplate to measure the amount of hemoglobin released at 545 nm (relative to 1% Triton® X-100) using a ChroMate® Microplate Reader.

Cytotoxicity assay (MTS) = type: cell-based; conditions: human, HepG2 cells, read-out: LC50
Protocol: as §5

S. epidermidis 1457 = assay: microbe, parasite or virus in culture; type: cell-based, Staphylococcus epidermidis; conditions: for MIC: read-out: Antimicrobial activity (MIC) S. epidermidis 1457
Protocol: as §1, §3

P. aeruginosa E416-17 = type: cell-based, Pseudomonas aeruginosa
Protocol: as §3

[5] = USA300, pH 6.21, read-out: Antimicrobial activity (MIC)
[6] = USA300, pH 7.22, read-out: Antimicrobial activity (MIC)
[7] = USA300, pH 8.13, read-out: Antimicrobial activity (MIC)
[8] = USA300, read-out: Antimicrobial activity (MIC)

| Substance | Antimicrobial activity (MIC) P. aeruginosa E411-17 (P. aeruginosa E411-17; E411-17) [µM] | MIC (P. aeruginosa E411-17; E411-17, pH 6.21) [µM] | MIC (P. aeruginosa E411-17; E411-17, pH 8.13) [µM] | Antimicrobial activity (MIC) E. coli E423-17 (E. coli E423-17 [3]) [µM] | Antimicrobial activity (MIC) A. baumannii B28-16 (A. baumannii B28-16) [µM] | CC50 at 24 h (Cytotoxicity assay (MTS)) [µM] | MIC (S. aureus USA300 LAC; [5]) [µM] | MIC (S. aureus USA300 LAC; [6]) [µM] | MIC (S. aureus USA300 LAC; [7]) [µM] | MIC (S. aureus USA300 LAC; [8]) [µM] | Hemolysis (HC10), 10% hemolytic concentration (human red blood cells) [µM] | MIC K. pneumoniae E406-17 (K. pneumoniae E406-17) [µM] | MIC P. aeruginosa E416-17 (P. aeruginosa E416-17) [µM] | also measured |
| --- | --- | --- | --- | --- | --- | --- | --- | --- | --- | --- | --- | --- | --- | --- |
| Gentamicin | – | – | – | – | – | – | – | – | – | – | – | – | – | change in MIC with dilution of MHB [1]: essentially no changes; membrane permeabilization (MRSA USA300): no fluorescence increase; membrane permeabilization (E. coli E423-17 [2]): did not permeate the E. coli membrane; Antimicrobial activity (MIC) (S. aureus USA300 LAC; MRSA in MHB, 10% serum): 0.5 to 1 µM; Antimicrobial activity (MIC) (S. aureus USA300 LAC; MRSA in MHB, 20% serum): 0.5 µM; Antimicrobial activity (MIC) (S. aureus USA300 LAC; MRSA in MHB, NaCl (150 mM)): 1 µM; Antimicrobial activity (MIC) (S. aureus USA300 LAC; MRSA in MHB, pH 6.3): 1 to 2 µM; Antimicrobial activity (MIC) (S. aureus USA300 LAC; MRSA in MHB, pH 7.2): 0.5 µM |
| KRIWQRWK-NH2 [W540] | – | – | – | – | – | – | – | – | – | – | – | – | – | Activity (MIC) P. aeruginosa (P. aeruginosa E411-17; E411-17): >32 µM; Activity (MIC) K. pneumoniae (K. pneumoniae E406-17): >32 µM; Activity (MIC) E.coli (E. coli E423-17 [3]): >32 µM; Activity (MIC) A. baumannii (A. baumannii B28-16): >32 µM; toxicity to human HaCaT skin cells [4]: more toxic than the other peptides; Activity (MIC) S. aureus (S. aureus USA300 LAC; USA300): >32 µM; HC50 (50% hemolysis) (human red blood cells): ~150 µM |
| KRWWQWWK-NH2 [KR-8+] | 8 | 8 | 8 | 4 | 16 to 32 | 12.5 | >32 | 8 | 8 | 16 | 300 | – | – | MIC (P. aeruginosa E411-17; E411-17, pH 7.22): 8 µM; Antimicrobial activity (MIC) S. epidermidis 1457 (S. epidermidis 1457): 16 to 32 µM; Antimicrobial activity (MIC) (S. aureus USA300 LAC; USA300): 16 to 32 µM; Antimicrobial activity (MIC) S. aureus USA300 (S. aureus USA300 LAC; USA300): 8 to 16 µM |
| KWKRFFRGWL-NH2 [RetroLL-10+] | – | – | – | – | – | – | – | – | – | – | – | >32 | 4 | – |
| LWGRFFRKWK-NH2 [LL-10+] | 8 to 16 | 16 | 8 | 32 | >32 | > 100 | >32 | 16 | 4 | > 32 | > 400 | >32 | 8 | MIC (P. aeruginosa E411-17; E411-17, pH 7.22): 8 µM; MIC (P. aeruginosa E411-17; E411-17): >32 µM; MIC E. coli E423-17 (E. coli E423-17 [3]): 32 µM; MIC (S. epidermidis 1457): 32 µM; MIC S. aureus USA300 (S. aureus USA300 LAC; USA300): 16 µM; MIC (S. aureus USA300 LAC; USA300, read-out: Antimicrobial activity (MIC) S. aureus USA300): 16 µM |
| RRWWRWWL-NH2 [W544] | – | – | – | – | – | – | – | – | – | – | – | – | – | Activity (MIC) P. aeruginosa (P. aeruginosa E411-17; E411-17): 4 µM; Activity (MIC) K. pneumoniae (K. pneumoniae E406-17): 8 to 16 µM; Activity (MIC) A. baumannii (A. baumannii B28-16): 8 to 16 µM; toxicity to human HaCaT skin cells [4]: more toxic than the other peptides; HC50 (50% hemolysis) (human red blood cells): about 80 μM |
| RWWKKWWGK-NH2 [RK-9+] | 8 to 16 | 32 | 4 | 8 | >32 | > 100 | >32 | 8 | 4 | 32 | > 400 | – | – | Antimicrobial activity (MIC) (P. aeruginosa E411-17; E411-17, pH 7.22): 8 to 16 µM; MIC (P. aeruginosa E411-17; E411-17): >32 µM; MIC (S. epidermidis 1457): 16 µM; Antimicrobial activity (MIC) (S. aureus USA300 LAC; USA300): 16 to 32 µM; Antimicrobial activity (MIC) S. aureus USA300 (S. aureus USA300 LAC; USA300): 8 to 16 µM |
| VWNRLFRKWR-NH2 [RetroRIK-10++] | – | – | – | – | – | – | – | – | – | – | – | >32 | 16 | – |
